According to patent US4957927A, “(Diarylmethoxy alkyl)-1-pyrrolidines and piperidines having cardiovascular activity” (Lipha, Lyonnaise Industrielle Pharmaceutique, priority 1988, dated 1990):
Structures can show the parent of a compound that is named as a salt.

Assays:
[1] = tested on: isolated depolarized artery of the rabbit's ear; assay: decrease in perfusion pressure (calcium-inhibitive effect) on the isolated depolarized artery of the rabbit's ear; conditions: Table 1; single dose of 10 μg injected into the perfusion system; hyperpotassic depolarizing solution; average of at least three artery fragments; measured at peak of action
Experimental: The calcium-inhibitive effect was researched in vitro using the method described by J. M. Van Neuten (Eur. J. Pharmacol., 1969, 6, 286) on the isolated depolarized artery of the rabbit's ear:
A fragment of the central artery of the ear was cannulated and suspended in 100 ml of a Tyrode solution [NaCl: 136.90 mmole/l; KCl: 2.68 mmole/l; CaCl2 : 3.60 mmole/l; MgCl2 : 1.04 mmole/l; NaH2 PO4 : 0.42 mmole/l; glucose: 5.55 mmole/l, NaHCO3 : 11.90 mmole/l ]. The fragment was oxygenated (O2 : 95%; CO2 : 5%) and perfused with a constant 2-ml/minute flow of Tyrode at 37° C. Pressure changes in the perfusion circuit were recorded continuously using a pressure sensor. After an equilibration period, the Tyrode was replaced with a hyperpotassic depolarizing solution [NaCl: 39.33 mmole/l; KCl: 99.83 mmole/l; CaCl2 : 3.60 mmole/l; MgCl2 : 1.04 mmole/l; NaH2 PO4 : 0.42 mmole/l; glucose: 5.55 mmole/l; NaHCO3 : 11.90 mmole/l ], which, because of intracellular calcium penetration, caused significant and durable vasoconstriction, antagonized by a calcium inhibitor. The products according to the invention were tested in a single dose of 10 μg administered by injection into the perfusion system, at a rate of 0.1 ml for 10 seconds. […] The effects of the products according to the invention on vasoconstriction induced by the hyperpotassic solution were monitored for several hours. The intensity was measured at the peak of their action.
Each product was tested on at least three artery fragments. Table I includes the average decreases in perfusion pressure observed for a few products according to the invention.

[2] = acute oral toxicity (lethal dose 50) in rats; conditions: rat, in vivo
Excerpt: Thus, the compound in example 10 has a lethal dose 50 in rats greater than 1 g/kg when administered orally.

calmodulin = calmodulin (Bos taurus, UniProt P62157); assay: anti-calmodulin activity (calmodulin activation of Type I cardiac phosphodiesterase); format: biochemical
Experimental: The principle of the method used is the activating effect calmodulin has on the basic enzyme activity of Type I cardiac phosphodiesterase (H. C. Ho et al., Biochim. Biophys. Acta 1976, 429, 461). Enzyme activity is measured using the W. J. Thomson and H. M. Appleman technique (Biochemistry, 1971, 10, 311).

Row | SMILES | % drop in perfusion pressure ± standard error [1] [%] | LD50 [2] [mg/kg] | IC50 (calmodulin) [µM]
1 | COc1cccc(C2CCN(CCOC(c3ccccc3)c3ccccc3)C2)c1.O=C(O)C(=O)O (stereo not shown) [Example 1, 1-[2-(diphenylmethoxy)ethyl]-3-(3-methoxyphenyl)pyrrolidine oxalate] | 56 ± 6 | – | –
2 | COc1ccc(C2CCN(CCOC(c3ccccc3)c3ccccc3)C2)cc1OC (stereo not shown) [Example 4, 3-(3,4dimethoxyphenyl)-1-[2-diphenylmethoxy)ethyl]pyrrolidine oxalate] | 54 ± 5 | – | –
3 | COc1cccc(C2CCN(CCOC(c3ccc(F)cc3)c3ccc(F)cc3)C2)c1 (stereo not shown) [Example 10, 1-[2-[bis(4-fluorophenyl)methoxy]ethyl]-3-(3-methoxyphenyl)pyrrolidine] | 59 ± 4 | > 1000 | 83
4 | COc1cccc(C2CCCN2CCOC(c2ccccc2)c2ccccc2)c1 (stereo not shown) [Example 11, 1-[2-(diphenylmethoxy)ethyl]-2-(3-methoxyphenyl)pyrrolidine] | 56 ± 5 | – | –
5 | COc1ccccc1C1CCN(CCOC(c2ccccc2)c2ccccc2)C1 (stereo not shown) [Example 13, 1-[2-diphenylmethoxy)ethyl]-3-(2-methoxyphenyl) pyrrolidine maleate] | 58 ± 5 | – | –
6 | CC(C)Oc1cccc(C2CCN(CCOC(c3ccc(F)cc3)c3ccc(F)cc3)C2)c1 (stereo not shown) [Example 14, 1-[2-[bis(4-fluorophenyl)methoxy]ethyl]-3-(3-isopropoxyphenyl)pyrrolidine] | 54 ± 5 | – | –
7 | COc1cc(OC)cc(C2CCN(CCOC(c3ccc(F)cc3)c3ccc(F)cc3)C2)c1 (stereo not shown) [Example 15, 1-[2-[bis(4-fluorophenyl)methoxy]ethyl]-3-(3,5-dimethoxyphenyl)pyrrolidine fumarate] | 52 ± 5 | – | –
8 | Fc1ccc(C(c2ccc(F)cc2)N2CCN(C/C=C/c3ccccc3)CC2)cc1 [flunarizine, reference compound] | 41 ± 4 | – | –
